The NIST ThermoML archive (doi:10.1016/j.jct.2006.10.016)
Where “and” joins values, the source holds several entries; their conditions need not be identical. Identical values can stand only once.

Tests used:
[1] = 101 kPa, Liquid
[2] = xn = mol fraction of the nth substance listed; conditions: 101 kPa, Liquid

C[S+](C)[O-] [dimethyl sulfoxide]
[1]
Conditions	mass density	viscosity [mPa·s]
303.15 K	1090.7 kg/m3	1.832
308.15 K	1084.7 kg/m3	1.67
313.15 K	1082.3 kg/m3	1.537
318.15 K	1075.1 kg/m3	1.408
323.15 K	1070.1 kg/m3 and 1070 kg/m3	1.289

CO [methanol]
[1]
Conditions	mass density [kg/m3]	viscosity [mPa·s]
303.15 K	781.3	0.5178
308.15 K	778.2	0.4843
313.15 K	772.4	0.4515
318.15 K	767.8	0.4233
323.15 K	762.7	0.395

CCO [ethanol]
[1]
Conditions	mass density [kg/m3]	viscosity [mPa·s]
303.15 K	783.4	1.086
308.15 K	779	0.9732
313.15 K	774.6	0.8596
318.15 K	769.8	0.8284
323.15 K	766.1	0.7493

CCCO [propan-1-ol]
[1]
Conditions	mass density [kg/m3]	viscosity [mPa·s]
303.15 K	795.5	1.733
308.15 K	791.1	1.534
313.15 K	787	1.367
318.15 K	783.3	1.234
323.15 K	779.5	1.1

C[S+](C)[O-] [dimethyl sulfoxide] + CC(C)O
[2]
Conditions	mass density, 303.15 K [kg/m3]	mass density, 308.15 K [kg/m3]	mass density, 313.15 K [kg/m3]	mass density, 318.15 K [kg/m3]	mass density, 323.15 K [kg/m3]	viscosity, 303.15 K [mPa·s]	viscosity, 308.15 K [mPa·s]	viscosity, 313.15 K [mPa·s]	viscosity, 318.15 K [mPa·s]	viscosity, 323.15 K [mPa·s]
x1 = 0.1001	806.4	802.2	798.2	793.2	787.9	1.525	1.352	1.2	1.078	0.9656
x1 = 0.2011	834.9	830.4	826	820.7	815.3	1.391	1.246	1.118	1.01	0.9102
x1 = 0.3005	865	860.4	856.3	850.6	845.2	1.306	1.18	1.078	0.9836	0.8887
x1 = 0.4007	895.8	891	887.1	881.3	875.8	1.335	1.209	1.103	1.011	0.9133
x1 = 0.4994	926.6	921.6	917.9	911.9	906.5	1.341	1.223	1.124	1.036	0.9383
x1 = 0.601	958.9	953.7	950	943.8	938.5	1.396	1.274	1.173	1.08	0.9843
x1 = 0.701	991.1	985.6	982.2	975.7	970.4	1.474	1.343	1.233	1.136	1.041
x1 = 0.7994	1023.3	1017.6	1014.5	1007.6	1002.3	1.55	1.41	1.31	1.198	1.108
x1 = 0.9005	1056.9	1051	1048.2	1041	1035.8	1.671	1.516	1.401	1.285	1.171
x1 = 1	1090.7	1084.7	1082.3	1075.1	1070	1.832	1.67	1.537	1.408	1.289

CC(C)O [propan-2-ol]
[1]
Conditions	mass density [kg/m3]	viscosity [mPa·s]
303.15 K	776.4	1.792
308.15 K	772.6	1.553
313.15 K	768.6	1.355
318.15 K	763.9	1.182
323.15 K	758.8	1.041

CCCO [propan-1-ol] + C[S+](C)[O-]
[2], x2 = 0
Conditions	mass density [kg/m3]	viscosity [mPa·s]
303.15 K	795.5	1.733
308.15 K	791.1	1.534
313.15 K	787	1.367
318.15 K	783.3	1.234
323.15 K	779.5	1.1
